# In patent US10968183B2, “Small molecule FIEL1 inhibitor in inflammatory and fibrotic lung injury” (UNIVERSITY OF PITTSBURGH—OF THE COMMONWEALTH SYSTEM OF …, priority 2015, dated 2021):
# Legend:
# [1] = system: PIAS4; experiment: PIAS4 protein half-life study (cycloheximide) in MLE cells; format: cell-based, murine; details: compound 5 μM for 18 h; FIG. 15F
# From the text: FIG. 9A. PIAS4 protein half-life study in MLE cells transfected with Empty plasmid or Ubiquitin plasmid. FIG. 9B. PIAS4 protein half-life study with MG132 or Leupeptin. FIG. 9C. Immunoblots showing levels of PIAS4 proteins and V5 after ectopic FIEL1 or UBE3B plasmid expression. FIG. 9D. Immunoblots showing levels of FIEL1 proteins after ectopic FIEL1 plasmid expression in MLE, HeLa, and 293T cells. FIG. 9E. Immunoblots showing levels of PIAS4 proteins and V5 after ectopic FIEL1 plasmid expression in HeLa and 293T cells. FIG. 9F. MLE cells were transfected with an inducible control or FIEL1 plasmid under control of exogenous doxycycline. Cells were treated with doxycycline in a dose dependent manner. Cells were then collected and cell lysates were immunoblotted for FIEL1 and PIAS4. FIG. 9G. MRC5 cells were exposed to TGFβ for 24 h before being assayed for PIAS4 and FIEL1 protein half-lives.
# (§1) FIG. 15A. Diagram of the BC-1485 synthesis process. FIGS. 15B-15C. Docking studies of the lead compound, BC-1485, interacting with the FIEL1-HECT domain. FIG. 15D. MRC5 cells were treated with the compound at various doses; cells were also co-treated with TGFβ at 2 ng/ml. 18 h later, cells were collected and assayed for α-SMA expression. FIG. 15E. MRC5 cells were seeded in 35 mm glass bottom dishes before co-treatment with TGFβ at 2 ng/ml and BC-1480 or BC1485 at 5μM. FIG. 15F. PIAS4 protein half-life determination after BC-1480 or BC1485 treatment at 5μM for 18 h. FIG. 15G. PIAS4 and KIAA0317 mRNA analysis after BC1485 treatment for 18 h.
# MLE cells were cultured in Dulbecco's Modified Eagle Medium-F12 (Gibco) supplemented with 10% fetal bovine serum (DMEM-10). 293T cells were cultured in Dulbecco's Modified Eagle Medium (Gibco) supplemented with 10% fetal bovine serum (DMEM-10). MRC5 cells were cultured in Eagle's Minimum Essential Medium (Gibco) supplemented with 10% fetal bovine serum (EMEM-10). For protein expression in MLE cells, nucleofection was used following Amaxa's protocol. For protein overexpression in 293T cells, Fugene6HD transfection reagents were used following the manufacturer's protocol. […]
# [2] = system: α-SMA expression in MRC5 cells; experiment: α-SMA expression in MRC5 cells co-treated with TGFβ; format: cell-based, human
# Procedure: as §1
# MLE cells were cultured in Dulbecco's Modified Eagle Medium-F12 (Gibco) supplemented with 10% fetal bovine serum (DMEM-10). 293T cells were cultured in Dulbecco's Modified Eagle Medium (Gibco) supplemented with 10% fetal bovine serum (DMEM-10). MRC5 cells were cultured in Eagle's Minimum Essential Medium (Gibco) supplemented with 10% fetal bovine serum (EMEM-10). For protein expression in MLE cells, nucleofection was used following Amaxa's protocol. For protein overexpression in 293T cells, Fugene6HD transfection reagents were used following the manufacturer's protocol. For protein expression in MRC5 cells, MRC-5 Cell Avalanche™ Transfection Reagent was used following manufacturer's protocol. Cells were treated with TGFβ at 0-2 ng/ml for 0-18 h. For FIEL1, PKCξ, or GSK3β knockdown studies in cells, scramble shRNA, KIAA0317, PKCξ, or GSK3β shRNA were used to transfect cells for 48 h. For drug treatment, compounds were solubilized in DMSO before being added to the cells for up to 18 h. Cell lysates were prepared by brief sonication in 150 mM NaCl, 50 mM Tris, 1.0 mM EDTA, 2 mM dithiothreitol, 0.025% sodium azide, and 1 mM phenylmethylsulfonyl fluoride (Buffer A) at 4° C. For half-life study, MLE cells were exposed to cycloheximide (40 μg/ml) in a time dependent manner for up to 8 h. Cells were then collected and immunoblotted.
compound,measurement,setting,value
CC(NC(=O)c1ccc(NS(=O)(=O)c2ccc3[nH]c(=O)[nH]c3c2)cc1)C(=O)N(C)C (stereo not drawn) [BC-1485],PIAS4 protein half-life,[1],stabilized PIAS4 by extending its half-life
same,inhibition of TGFβ pathway,[2]; FIG. 15,inhibition of TGFβ pathway
same,IC50,"[2]; MRC5 cells, TGFβ 2 ng/ml, 18 h, FIG. 15D, read-out: IC50 for decrease of α-SMA expression",~32 nM
